Reference: PubChem BioAssay (NCI)
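Growth conditions: 96-well plates. Treatment: test compound, 48 hours, 5 concentrations. Analysis: linear interpolation between bracketing concentrations; unreached endpoints set to highest concentration. Definition used: TGI = concentration required for complete inhibition of growth.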

How the values were obtained:
Experiment in all cases: inhibition of tumour cell growth, NCI panel, 48 h
SW-620 colon = tested on: SW-620 colon
NCI-H23 lung = tested on: NCI-H23 lung
IGROV1 ovarian = tested on: IGROV1 ovarian
786-0 renal = tested on: 786-0 renal
A498 renal = tested on: A498 renal
SF-539 CNS = tested on: SF-539 CNS
MCF7 breast = tested on: MCF7 breast
MDA-N = tested on: MDA-N
HS 578T breast = tested on: HS 578T breast
LOX IMVI melanoma = tested on: LOX IMVI melanoma
PC-3 prostate = tested on: PC-3 prostate
KM12 colon = tested on: KM12 colon
TK-10 renal = tested on: TK-10 renal
K-562 leukemia = tested on: K-562 leukemia
EKVX NSCLC = tested on: EKVX NSCLC
HOP-92 NSCLC = tested on: HOP-92 NSCLC
DU-145 prostate = tested on: DU-145 prostate
NCI-H226 lung = tested on: NCI-H226 lung
SNB-75 CNS = tested on: SNB-75 CNS

| SMILES | TGI (SW-620 colon) [µM] | TGI (NCI-H23 lung) [µM] | TGI (IGROV1 ovarian) [µM] | TGI (786-0 renal) [µM] | TGI (A498 renal) [µM] | TGI (SF-539 CNS) [µM] | TGI (MCF7 breast) [µM] | TGI (MDA-N) [µM] | TGI (HS 578T breast) [µM] | TGI (LOX IMVI melanoma) [µM] | TGI (PC-3 prostate) [µM] | TGI (KM12 colon) [µM] | TGI (TK-10 renal) [µM] | TGI (K-562 leukemia) [µM] | TGI (EKVX NSCLC) [µM] | TGI (HOP-92 NSCLC) [µM] | TGI (DU-145 prostate) [µM] | TGI (NCI-H226 lung) [µM] | TGI (SNB-75 CNS) [µM] |
| --- | --- | --- | --- | --- | --- | --- | --- | --- | --- | --- | --- | --- | --- | --- | --- | --- | --- | --- | --- |
| O=C1c2ccccc2/C=C\C(c2ccccc2)=N/N1c1ccccc1Cl | > 100 | 93.6 | > 100 | > 100 | 71.9 | > 100 | 63.9 | 14.7 | > 100 | > 100 | 28.6 | 64.4 | > 100 | > 100 | > 100 | 78.4 | > 100 | > 100 | 97.8 |
| N#C[C@H](C(=O)c1ccccc1F)c1nc2ccccc2[nH]1 | > 100 | > 100 | > 100 | > 100 | > 100 | > 100 | > 100 | > 100 | > 100 | > 100 | > 100 | > 100 | > 100 | > 100 | > 100 | > 100 | > 100 | > 100 | > 100 |
| Nc1nc2c(c(=O)[nH]1)NC(CCNc1ccc(C(=O)O)cc1)CN2 (stereo not drawn) | > 100 | > 100 | > 100 | > 100 | > 100 | > 100 | > 100 | > 100 | > 100 | > 100 | > 100 | > 100 | > 100 | > 100 | > 100 | > 100 | > 100 | > 100 | > 100 |
| COc1cccc(Nc2nc(NS(=O)(=O)c3cc(C)c(Cl)cc3S)n[nH]2)c1 | > 100 | > 100 | > 100 | > 100 | > 100 | > 100 | > 100 | > 100 | > 100 | > 100 | > 100 | > 100 | > 100 | > 100 | > 100 | > 100 | > 100 | > 100 | > 100 |
| COc1cccc(/C=C2/S/C(=N/Nc3nc(C)c(C(C)=O)s3)NC2=O)c1O | > 100 | > 100 | > 100 | > 100 | > 100 | > 100 | > 100 | > 100 | > 100 | > 100 | 70.4 | > 100 | 94.2 | > 100 | 84.4 | 91.7 | > 100 | > 100 | > 100 |
| CC(=O)OC1CC[C@@]2(C)C(=CC[C@@H]3[C@@H]2CC[C@]2(C)C(OC(C)=O)[C@H](n4ccnc4)C[C@@H]32)C1 (stereo partly drawn) | > 100 | > 100 | > 100 | > 100 | > 100 | 29.8 | 33.2 | 46.6 | > 100 | 37.7 | 39.5 | 30.4 | > 100 | 86.3 | > 100 | > 100 | > 100 | > 100 | > 100 |
| CN(CCCNC(=O)c1c2ccc3ccccc3c2nn1C)CCCNC(=O)c1c2ccc3ccccc3c2nn1C | 21.3 | 29.4 | 23.3 | 25.7 | 15.7 | 17.8 | 15.6 | 8.91 | 30.3 | 9.18 | 27.5 | 23.7 | 18.1 | 12 | 22.3 | 12.7 | 44.4 | 31.1 | 21.4 |
